Reference: BigSolDB 2.1

O=C(O)CCCCCCCCCCCC(=O)O
solubility (mole fraction)
Settings | 283.15 K | 288.15 K | 293.15 K | 298.15 K | 303.15 K | 308.15 K | 313.15 K | 318.15 K | 323.15 K
in acetic acid | – | 0.00231 | 0.00309 | 0.00418 | 0.00656 | 0.00975 | 0.0138 | 0.0201 | 0.0253
in acetone | 0.00192 | 0.00207 | 0.00302 | 0.00409 | 0.00633 | 0.00892 | 0.0128 | 0.0166 | 0.0234
in ethanol | 0.00277 | 0.00286 | 0.00388 | 0.00441 | 0.00674 | 0.0115 | 0.0149 | 0.0207 | 0.0263
in ethyl acetate | 0.00072 | 0.00083 | 0.00111 | 0.00149 | 0.00254 | 0.00361 | 0.00524 | 0.00722 | 0.011
in methanol | 0.00291 | 0.00315 | 0.00388 | 0.00449 | 0.00541 | 0.00845 | 0.0106 | 0.0126 | 0.015
